According to patent US20260068885A1, “HERBICIDAL COMPOSITIONS” (BAYER AKTIENGESELLSCHAFT, priority 2022, published 2026):

Legend:
Assay in all cases: Post-emergence herbicidal action against harmful plants (greenhouse)
Assay type in all cases: in vivo
[1] = test system: Abutilon theophrasti (ABUTH)
Procedure: (§1) Seeds of monocotyledonous and dicotyledonous weed and crop plants are laid out in sandy loam soil in wood-fibre pots, covered with soil and cultivated in a greenhouse under good growth conditions. 2 to 3 weeks after sowing, the test plants are treated at the one-leaf stage. The compounds of the invention, formulated in the form of wettable powders (WP) or as emulsion concentrates (EC), are then sprayed onto the green parts of the plants in the form of an aqueous suspension or emulsion at a water application rate equivalent to 600 to 800 l/ha, with addition of 0.2% wetting agent. After the test plants have been […], the action of the preparations is assessed visually in comparison to untreated controls (herbicidal action in percent (%): 100% activity=the plants have died, 0% activity=like control plants). […] The tables below illustrate, in an illustrative manner, the post-emergence herbicidal action of the compounds of the invention, the herbicidal activity being stated in percent.
(§2) In the tables that follow, the abbreviations mean the following: • E: means the synergism value to be expected according to the Colby formula. • Δ SYN: means the difference between the actual and expected synergism value. • DAT: means days after treatment.

[2] = test system: Setaria viridis (SETVI)
Procedure: as §1, §2

[3] = test system: Solanum nigrum (SOLNI)
Procedure: as §1, §2

[4] = test system: Euphorbia heterophylla (EPHHL); details: EPHHL 21 DAT
Procedure: (§3) Seeds of monocotyledonous and dicotyledonous weed and crop plants are laid out in sandy loam soil in wood-fibre pots, covered with soil and cultivated in a greenhouse under good growth conditions. 2 to 3 weeks after sowing, the test plants are treated at the one-leaf stage. The compounds of the invention, formulated in the form of wettable powders (WP) or as emulsion concentrates (EC), are then sprayed onto the green parts of the plants in the form of an aqueous suspension or emulsion at a water application rate equivalent to 600 to 800 l/ha, with addition of 0.2% wetting agent. After the test plants have been left to stand in the greenhouse under optimal growth conditions for about 3 weeks, the action of the preparations is assessed visually in comparison to untreated controls (herbicidal action in percent (%): 100% activity=the plants have died, 0% activity=like control plants). […] The tables below illustrate, in an illustrative manner, the post-emergence herbicidal action of the compounds of the invention, the herbicidal activity being stated in percent.
as §2

[5] = test system: Brachiaria platyphylla (BRAPP)
Procedure: as §3, §2

[6] = test system: Emex australis (EMEAU)
Procedure: as §3, §2

[7] = test system: Sorghum halepense (SORHA)
Procedure: as §3, §2

[8] = test system: Pharbitis purpurea (PHBPU)
[9] = test system: Polygonum convolvulus (POLCO)
[10] = test system: Erigeron bonariensis (ERIBO)
Procedure: as §1, §2

[11] = test system: Cyperus iria (CYPIR)
Procedure: as §1, §2

[12] = test system: Xanthium strumarium (XANST); details: application rate 1 g a.i./ha
[13] = application rate 0.25 g a.i./ha

SMILES: C#CCN1C(=O)C(F)(F)Oc2cc(F)c(-n3c(=O)n(C)c(=S)n(C)c3=O)cc21 [trifludimoxazin]
- Herbicidal efficacy ([1]; ABUTH 10 DAT, 0.25 g a.i./ha): 88%
- Herbicidal efficacy ([1]; ABUTH 10 DAT, 1 g a.i./ha): 85%
- Herbicidal efficacy ([1]; ABUTH 21 DAT, 0.25 g a.i./ha): 80%
- Herbicidal efficacy ([1]; ABUTH 21 DAT, 1 g a.i./ha): 75%
- Herbicidal efficacy ([2]; SETVI 10 DAT, 0.25 g a.i./ha): 85%
- Herbicidal efficacy ([2]; SETVI 21 DAT, 0.25 g a.i./ha): 70%
- Herbicidal efficacy [%] against SOLNI 10 DAT ([3]; application rate 1 g a.i./ha): 88%
- Herbicidal efficacy [%] against SOLNI 21 DAT ([3]; application rate 1 g a.i./ha): 60%
- Herbicidal efficacy ([4]; 0.25 g a.i./ha): 88%
- Herbicidal efficacy ([5]; BRAPP 10 DAT, 1 g a.i./ha): 80%
- Herbicidal efficacy ([6]; EMEAU 21 DAT, 1 g a.i./ha): 85%
- Herbicidal efficacy [%] against SORHA 10 DAT [7, 13]: 70%
- Herbicidal efficacy [%] against SORHA 21 DAT [7, 13]: 40%
- Herbicidal efficacy [%] against SORHA 10 DAT ([7]; application rate 1 g a.i./ha): 85%
- Herbicidal efficacy [%] against SORHA 21 DAT ([7]; application rate 1 g a.i./ha): 70%
- Herbicidal efficacy ([8]; PHBPU 21 DAT, 1 g a.i./ha): 80%

SMILES: CCOC(=O)C1(C)CC(c2cc(-n3c(=O)cc(C(F)(F)F)n(C)c3=O)c(F)cc2Cl)=NO1 (stereo not shown) [P4, ethyl 3-{2-chloro-4-fluoro-5-[3-methyl-2,6-dioxo-4-(trifluoromethyl)-3,6-dihydropyrimidin-1(2H)-yl]phenyl}-5-methyl-4,5-dihydro-1,2-oxazole-5-carboxylate]
- Herbicidal efficacy ([2]; SETVI 10 DAT, 1 g a.i./ha): 88%
- Herbicidal efficacy ([2]; SETVI 21 DAT, 1 g a.i./ha): 80%
- Herbicidal efficacy ([4]; 1 g a.i./ha): 80%
- Herbicidal efficacy ([6]; EMEAU 21 DAT, 1 g a.i./ha): 70%

SMILES: COc1c(Cl)ccc(-c2nc(C(=O)O)c(Cl)c(N)c2F)c1F [florpyrauxifen]
- Herbicidal efficacy ([1]; ABUTH 21 DAT, 0.3 g a.i./ha): 90%
- Herbicidal efficacy ([2]; SETVI 10 DAT, 0.3 g a.i./ha): 30%
- Herbicidal efficacy ([2]; SETVI 21 DAT, 0.3 g a.i./ha): 40%
- Herbicidal efficacy ([4]; 0.3 g a.i./ha): 90%
- Herbicidal efficacy ([5]; BRAPP 10 DAT, 0.3 g a.i./ha): 75%
- Herbicidal efficacy ([5]; BRAPP 21 DAT, 0.3 g a.i./ha): 60%
- Herbicidal efficacy ([6]; EMEAU 21 DAT, 1.2 g a.i./ha): 75%
- Herbicidal efficacy [%] against SORHA 10 DAT ([7]; application rate 0.3 g a.i./ha): 10%
- Herbicidal efficacy ([9]; POLCO 10 DAT, 1.2 g a.i./ha): 90%
- Herbicidal efficacy ([9]; POLCO 21 DAT, 1.2 g a.i./ha): 90%

SMILES: COc1ccc(-n2nc(C)cc(C(=O)C3C(=O)CCCC3=O)c2=O)cc1OC [dioxopyritrione]
- Herbicidal efficacy ([10]; ERIBO 10 DAT, 10 g a.i./ha): 90%
- Herbicidal efficacy ([10]; ERIBO 21 DAT, 10 g a.i./ha): 88%
- Herbicidal efficacy ([1]; ABUTH 21 DAT, 10 g a.i./ha): 80%
- Herbicidal efficacy ([2]; SETVI 10 DAT, 2.5 g a.i./ha): 10%
- Herbicidal efficacy ([2]; SETVI 10 DAT, 10 g a.i./ha): 20%
- Herbicidal efficacy ([2]; SETVI 21 DAT, 2.5 g a.i./ha): 10%
- Herbicidal efficacy ([2]; SETVI 21 DAT, 10 g a.i./ha): 20%
- Herbicidal efficacy ([5]; BRAPP 10 DAT, 2.5 g a.i./ha): 40%
- Herbicidal efficacy ([5]; BRAPP 10 DAT, 10 g a.i./ha): 70%
- Herbicidal efficacy ([5]; BRAPP 21 DAT, 2.5 g a.i./ha): 20%
- Herbicidal efficacy ([5]; BRAPP 21 DAT, 10 g a.i./ha): 30%
- Herbicidal efficacy [%] against SORHA 10 DAT ([7]; application rate 2.5 g a.i./ha): 20%
- Herbicidal efficacy [%] against SORHA 21 DAT ([7]; application rate 2.5 g a.i./ha): 0%
- Herbicidal efficacy [%] against SORHA 10 DAT ([7]; application rate 10 g a.i./ha): 30%
- Herbicidal efficacy [%] against SORHA 21 DAT ([7]; application rate 10 g a.i./ha): 10%
- Herbicidal efficacy ([8]; PHBPU 21 DAT, 2.5 g a.i./ha): 20%
- Herbicidal efficacy ([9]; POLCO 10 DAT, 2.5 g a.i./ha): 80%
- Herbicidal efficacy ([9]; POLCO 10 DAT, 10 g a.i./ha): 80%
- Herbicidal efficacy ([9]; POLCO 21 DAT, 10 g a.i./ha): 70%

SMILES: FC(F)c1cc(-c2c(Cl)cccc2Oc2ncc(Cl)cn2)on1 [rimisoxafen]
- Herbicidal efficacy ([11]; CYPIR 21 DAT, 20 g a.i./ha): 88%
- Herbicidal efficacy ([10]; ERIBO 21 DAT, 20 g a.i./ha): 10%
- Herbicidal efficacy ([1]; ABUTH 10 DAT, 20 g a.i./ha): 88%
- Herbicidal efficacy ([1]; ABUTH 21 DAT, 20 g a.i./ha): 40%
- Herbicidal efficacy ([2]; SETVI 21 DAT, 20 g a.i./ha): 30%
- Herbicidal efficacy [%] against SOLNI 10 DAT ([3]; application rate 80 g a.i./ha): 88%
- Herbicidal efficacy [%] against SOLNI 21 DAT ([3]; application rate 80 g a.i./ha): 80%
- Herbicidal efficacy ([5]; BRAPP 10 DAT, 20 g a.i./ha): 30%
- Herbicidal efficacy ([5]; BRAPP 21 DAT, 20 g a.i./ha): 20%
- Herbicidal efficacy ([6]; EMEAU 10 DAT, 80 g a.i./ha): 88%
- Herbicidal efficacy ([6]; EMEAU 21 DAT, 80 g a.i./ha): 80%
- Herbicidal efficacy [%] against SORHA 10 DAT ([7]; application rate 20 g a.i./ha): 10%
- Herbicidal efficacy [%] against SORHA 21 DAT ([7]; application rate 20 g a.i./ha): 10%
- Herbicidal efficacy ([8]; PHBPU 10 DAT, 20 g a.i./ha): 30%
- Herbicidal efficacy ([8]; PHBPU 21 DAT, 20 g a.i./ha): 20%
- Herbicidal efficacy ([9]; POLCO 21 DAT, 20 g a.i./ha): 60%
- Herbicidal efficacy ([9]; POLCO 21 DAT, 80 g a.i./ha): 88%

SMILES: COC(=O)CCNC(=O)C(C)Sc1cc(-n2c(=O)cc(C(F)(F)F)n(C)c2=O)c(F)cc1Cl (stereo not shown) [tiafenacil]
- Herbicidal efficacy ([11]; CYPIR 21 DAT, 0.25 g a.i./ha): 88%
- Herbicidal efficacy [%] against SOLNI 10 DAT ([3]; application rate 1 g a.i./ha): 88%
- Herbicidal efficacy [%] against SOLNI 21 DAT ([3]; application rate 1 g a.i./ha): 60%
- Herbicidal efficacy [%] against XANST 10 DAT ([12]; 10 DAT): 88%
- Herbicidal efficacy [%] against XANST 21 DAT ([12]; 21 DAT): 85%
- Herbicidal efficacy ([5]; BRAPP 21 DAT, 1 g a.i./ha): 40%
- Herbicidal efficacy [%] against SORHA 21 DAT ([7]; application rate 1 g a.i./ha): 85%

SMILES: CN1C[C@H](c2cccc(C(F)(F)F)c2)[C@@H](C(=O)Nc2ccccc2F)C1=O [tetflupyrolimet]
- Herbicidal efficacy ([11]; CYPIR 10 DAT, 400 g a.i./ha): 0%
- Herbicidal efficacy ([11]; CYPIR 21 DAT, 400 g a.i./ha): 0%
- Herbicidal efficacy ([1]; ABUTH 10 DAT, 400 g a.i./ha): 0%
- Herbicidal efficacy ([1]; ABUTH 21 DAT, 400 g a.i./ha): 0%
- Herbicidal efficacy [%] against SOLNI 10 DAT ([3]; application rate 400 g a.i./ha): 10%
- Herbicidal efficacy [%] against SOLNI 21 DAT ([3]; application rate 400 g a.i./ha): 0%
- Herbicidal efficacy ([5]; BRAPP 21 DAT, 400 g a.i./ha): 70%
- Herbicidal efficacy [%] against SORHA 10 DAT ([7]; application rate 100 g a.i./ha): 10%
- Herbicidal efficacy [%] against SORHA 21 DAT ([7]; application rate 100 g a.i./ha): 0%
- Herbicidal efficacy ([9]; POLCO 10 DAT, 400 g a.i./ha): 10%
- Herbicidal efficacy ([9]; POLCO 21 DAT, 100 g a.i./ha): 0%
- Herbicidal efficacy ([9]; POLCO 21 DAT, 400 g a.i./ha): 0%

SMILES: Nc1c(F)c(-c2ccc3cc[nH]c3c2F)nc(C(=O)O)c1Cl [P3, 4-amino-3-chloro-5-fluoro-6-(7-fluoro-1H-indol-6-yl)pyridine-2-carboxylic acid]
- Herbicidal efficacy ([1]; ABUTH 21 DAT, 0.3 g a.i./ha): 60%
- Herbicidal efficacy ([1]; ABUTH 21 DAT, 1.2 g a.i./ha): 60%
- Herbicidal efficacy ([2]; SETVI 21 DAT, 0.3 g a.i./ha): 70%
- Herbicidal efficacy ([3]; SOLNI 21 DAT, 1.2 g a.i./ha): 85%
- Herbicidal efficacy ([5]; BRAPP 10 DAT, 0.3 g a.i./ha): 70%
- Herbicidal efficacy ([5]; BRAPP 21 DAT, 0.3 g a.i./ha): 60%
- Herbicidal efficacy ([5]; BRAPP 21 DAT, 1.2 g a.i./ha): 75%
- Herbicidal efficacy ([6]; EMEAU 21 DAT, 1.2 g a.i./ha): 70%
- Herbicidal efficacy [%] against SORHA 10 DAT ([7]; application rate 0.3 g a.i./ha): 30%
- Herbicidal efficacy [%] against SORHA 21 DAT ([7]; application rate 0.3 g a.i./ha): 10%
- Herbicidal efficacy [%] against SORHA 10 DAT ([7]; application rate 1.2 g a.i./ha): 60%
- Herbicidal efficacy [%] against SORHA 21 DAT ([7]; application rate 1.2 g a.i./ha): 30%
